These results are taken from publication PMC8259857, “Anti-tubercular activity and molecular docking studies of indolizine derivatives targeting mycobacterial InhA enzyme” (Journal of Enzyme Inhibition and Medicinal Chemistry, 2021).

≈ marks a conversion by molar mass, not a printed value. A value given as a limit tells only on which side of the number the result lay.

By MIC is commonly meant the lowest concentration found to suppress growth. A word on the melting point: it is the temperature of the solid-liquid transition.

The test system of data set [1] is susceptible H37Rv MTB strain (ATCC 25177). In words: Resazurin Microplate Assay (REMA), whole-cell anti-tubercular activity against H37Rv. The data set is classed as cell-based, Mycobacterium tuberculosis. To be noted: for MIC: Mycobacterium tuberculosis, read-out: MIC H37Rv; for MIC H37Rv: H37Rv ATCC 25177, NA: not active at the concentration range (0.2–64 μg/mL). (In general: Alamar Blue is a resazurin reagent that responds to reducing activity.)

Take `CCOC(=O)c1cc(C(=O)c2ccc(Cl)cc2)n2ccccc12` [Compound 2b]: the minimum inhibitory concentration (MIC) in data set [1] turned out to be 8 µg/mL (≈ 24.4 µM).

Consider `CCOC(=O)c1c(C)c(C(=O)c2ccc(Cl)cc2)n2ccccc12` [Compound 3b], for which the MIC in data set [1] was determined as 32 µg/mL (≈ 93.6 µM).

In turn, `CCOC(=O)c1c(C(=O)OCC)c2ccccn2c1C(=O)c1ccc(F)cc1` [Compound 4a, Diethyl-3-(4-fluorobenzoyl)indolizine-1,2-dicarboxylate] registered a melting point of 138 to 139 °C. For the same compound, the MIC in data set [1] worked out at 8 µg/mL (≈ 20.9 µM).

In the case of `CCOC(=O)c1c(C)c(C(=O)c2ccc(F)cc2)n2ccccc12` [Compound 3a], the MIC in data set [1] worked out at 4 µg/mL (≈ 12.3 µM).

Consider `NNC(=O)c1ccncc1` [Isoniazid, reference compound], for which the MIC in data set [1] was < 0.2 µg/mL.

Take `CCOC(=O)c1cc(C(=O)c2ccc([N+](=O)[O-])cc2)n2ccccc12` [Compound 2d]: the MIC in data set [1] turned out to be 8 µg/mL (≈ 23.6 µM).

`CCOC(=O)c1c(C(=O)OCC)c2ccccn2c1C(=O)c1ccc([N+](=O)[O-])cc1` [Compound 4c, Diethyl-3-(4-nitrobenzoyl)indolizine-1,2-dicarboxylate] had a melting point of 111 to 112 °C. The MIC in data set [1] came out at 32 µg/mL (≈ 78 µM).

On to `CCOC(=O)c1cc(C(=O)c2ccc(Br)cc2)n2ccccc12` [Compound 2c], for which the MIC in data set [1] was 32 µg/mL (≈ 86 µM).

As to `CO[C@H]1/C=C/O[C@@]2(C)Oc3c(C)c(O)c4c(O)c(c(/C=N/N5CCN(C)CC5)c(O)c4c3C2=O)NC(=O)/C(C)=C\C=C\[C@H](C)[C@H](O)[C@@H](C)[C@@H](O)[C@@H](C)[C@H](OC(C)=O)[C@@H]1C` [Rifampicin, reference compound], the MIC in data set [1] was < 1 µg/mL.

As for `CCOC(=O)c1cc(C(=O)c2ccc(C#N)cc2)n2ccccc12` [Compound 2f], the “MIC H37Rv” value in data set [1] is reported as “completely abolished the activity”.

In the case of `CCOC(=O)c1cc(C(=O)c2ccc(C)cc2)n2ccccc12` [Compound 2e], the “MIC H37Rv” value in data set [1] was “completely abolished the activity”.

On to `CCOC(=O)c1c(C)c(C(=O)c2ccc([N+](=O)[O-])cc2)n2ccccc12` [Compound 3d], for which the MIC in data set [1] is 8 µg/mL (≈ 22.7 µM).

Turning to `CCOC(=O)c1c(C(=O)OCC)c2ccccn2c1C(=O)c1ccc(Cl)cc1` [Compound 4b, Diethyl-3-(4-chlorobenzoyl)indolizine-1,2-dicarboxylate], the melting point fell in the range of 137 to 138 °C. Also, the MIC in data set [1] amounted to 8 µg/mL (≈ 20 µM).
